Data on 10 compounds can be found in ChEMBL document CHEMBL1201862, “PubChem BioAssay data set” (2004).

The structures appear in SMILES notation.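 Briefly, cells in 96-well plates were exposed to five compound concentrations for 48 h, and endpoints were estimated by linear interpolation. GI50 is the concentration that inhibits growth by half.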 Calls of active or inactive are those of the source. Cut-off read from the data, not from the text of the source: active = GI50 up to about 1.1 µM and inactive = higher. Where only a bound is given, the exact number is not on record here.

Assay in all cases: NCI anticancer screen, dose series, 48 h
The test system of experiment [1] is UO-31.
In experiment [2] the test system is SK-MEL-2.
Experiment [3] has as its system SK-OV-3.
Experiment [4] concerns COLO 205.
Experiment [5] has as its system UACC-257.
Experiment [6] has as its system SF-295.
For experiment [7], the system named is OVCAR-8.
In experiment [8] the test system is MOLT-4.
Experiment [9] has as its system M14.
The subject of experiment [10] is MDA-MB-435.
Experiment [11] relates to Malme-3M.
The subject of experiment [12] is OVCAR-5.
Experiment [13] deals with K562.
In experiment [14] the test system is OVCAR-4.
Experiment [15] concerns U-251.
Experiment [16] has as its system NCI-H23.
The test system of experiment [17] is SF-268.
Experiment [18] relates to PC-3.
Experiment [19] deals with KM12.
Experiment [20] has as its system CCRF-CEM.

For the compound `CCC1c2[nH]c3ccccc3c2C[C@H]2C(=O)NC(CCC(=O)OC(C)(C)C)C(=O)N12` (stereo partly drawn), the GI50 in experiment [1] was 46.9 µM (inactive); in experiment [2], 60.8 µM (inactive); in experiment [3], 63.5 µM (inactive); in [4], 32.4 µM (inactive); in experiment [5] it was 40.2 µM (inactive); in experiment [6] it was 42.3 µM (inactive). In addition, the GI50 in experiment [7] is 48.4 µM (inactive); in [8], 35.3 µM (inactive); in [9] it was 42.5 µM (inactive); in experiment [10], 49.5 µM (inactive); in [11], 12.6 µM (inactive); in [12], 62.1 µM (inactive). Besides, the GI50 was 53.6 µM (inactive) in [13]; 41.4 µM (inactive) in experiment [14]; 56.6 µM (inactive) in experiment [15]; 68.7 µM (inactive) in experiment [16]; 37.4 µM (inactive) in experiment [17]; 33.7 µM (inactive) in [18]. Besides, the GI50 in experiment [19] is 35.1 µM (inactive).
Take `NNC(=O)c1nnn(CCc2ccccc2)c1C(=O)NN`: the GI50 in experiment [1], in [2], in experiment [4], in experiment [5], in [6] and in experiment [7] was > 100 µM (inactive) throughout. In addition, the GI50 in [8], in experiment [9], in experiment [10], in [20], in [11] and in [12] was > 100 µM (inactive) in each case. Also, the GI50 in experiment [13], in [14], in [15], in experiment [16], in experiment [18] and in experiment [19] was > 100 µM (inactive) throughout.
Consider `CCOC(=O)Nc1ccc(C)c(NC(=O)OCC)c1`, for which the GI50 in experiment [1], in experiment [2], in experiment [3], in experiment [4], in experiment [5] and in [6] was > 100 µM (inactive) in each case. Besides, the GI50 in experiment [7], in experiment [8], in [9], in experiment [10], in experiment [20] and in experiment [11] was > 100 µM (inactive) in each case. The GI50 in [12], in experiment [13], in [15], in [16], in [17] and in experiment [18] was > 100 µM (inactive) throughout. Besides, the GI50 in experiment [19] is > 100 µM (inactive).
Take `O=C(COc1ccc(OCC(=O)N/N=C/c2ccc(-c3ccc(Cl)cc3Cl)o2)c(Cl)c1)N/N=C/c1ccc(-c2ccc(Cl)cc2Cl)o1`: the GI50 was > 100 µM (inactive) in experiment [1]; 17.1 µM (inactive) in [2]; 0.942 µM (active) in experiment [4]; > 100 µM (inactive) in experiment [5]; 32.2 µM (inactive) in experiment [6]; 55.3 µM (inactive) in [7]. Further, the GI50 in experiment [8] was 0.0298 µM (active); in [9], > 100 µM (inactive); in [10] it was 24.1 µM (inactive); in experiment [20] it was 14.8 µM (inactive); in experiment [11] it was 82.8 µM (inactive); in experiment [12] it was > 100 µM (inactive). The GI50 in experiment [13] is 15.3 µM (inactive); in experiment [14], > 100 µM (inactive); in [15], 46.7 µM (inactive); in experiment [16] it was > 100 µM (inactive); in experiment [17] it was 41.6 µM (inactive); in [18], 33.7 µM (inactive). Moreover, the GI50 in [19] was > 100 µM (inactive).
As for `CC(C)=C1C(=O)C[C@]2(C)C/C=C(\C)CC/C=C(\C)CC[C@@H]12`, the GI50 in [1] is 7.73 µM (inactive); in experiment [2] it was 7.85 µM (inactive); in experiment [3], 18.9 µM (inactive); in experiment [4], 8.51 µM (inactive); in experiment [5] it was 11.1 µM (inactive); in experiment [6], 11.3 µM (inactive). The GI50 is 8.51 µM (inactive) in [7]; 8.61 µM (inactive) in experiment [8]; 7.87 µM (inactive) in experiment [9]; 9.53 µM (inactive) in experiment [10]; 9.23 µM (inactive) in experiment [20]; 12.1 µM (inactive) in experiment [12]. The GI50 in experiment [13] is 6.65 µM (inactive); in experiment [14], 15.3 µM (inactive); in experiment [15] it was 7.62 µM (inactive); in experiment [16], 10.2 µM (inactive); in [17], 8.93 µM (inactive); in experiment [18] it was 11.8 µM (inactive). In experiment [19], the GI50 is 8.67 µM (inactive).
For the compound `O=S(=O)(Oc1ccc2oc3ccccc3c2c1-c1c(OS(=O)(=O)C(F)(F)F)ccc2oc3ccccc3c12)C(F)(F)F`, the GI50 was > 100 µM (inactive) in experiment [1]; > 100 µM (inactive) in experiment [2]; > 100 µM (inactive) in [3]; > 92.3 µM (inactive) in experiment [4]; > 100 µM (inactive) in experiment [5]; > 100 µM (inactive) in experiment [6]. Also, the GI50 in [7], in experiment [8], in experiment [9], in experiment [10], in [20] and in experiment [12] was > 100 µM (inactive) throughout. For the same compound, the GI50 in experiment [13], in experiment [14], in experiment [15], in [16], in [17] and in [18] was > 100 µM (inactive) throughout. Besides, the GI50 in experiment [19] was > 100 µM (inactive).
In the case of `COc1ccc(/N=N/C(=O)NC(Cc2ccccc2)C(=O)O)cc1` (stereo not drawn), the GI50 in [1], in [2], in experiment [4], in [5], in [6] and in [7] was > 100 µM (inactive) in each case. The GI50 in experiment [8], in [9], in [10], in [20], in experiment [11] and in experiment [12] was > 100 µM (inactive) throughout. Further, the GI50 in experiment [13] is > 100 µM (inactive); in [14], > 100 µM (inactive); in experiment [15], > 100 µM (inactive); in [16], > 100 µM (inactive); in experiment [17], > 100 µM (inactive); in [18], 95.7 µM (inactive). For the same compound, the GI50 in experiment [19] is > 100 µM (inactive).
For `CC[C@@H]1CSC(/C=C/C2OC3OC(C)(C)OC3C3OC(C)(C)OC23)=N1` (stereo partly drawn), the GI50 in experiment [1] was 10.8 µM (inactive); in [2], 14.1 µM (inactive); in [3], 35.8 µM (inactive); in experiment [4], 5.32 µM (inactive); in [5] it was 10.1 µM (inactive); in experiment [6], 18.6 µM (inactive). The GI50 in [7] was 4.49 µM (inactive); in experiment [8], 4.54 µM (inactive); in experiment [9] it was 10 µM (inactive); in experiment [10], 4.15 µM (inactive); in experiment [11], 10.9 µM (inactive); in experiment [12], 7.91 µM (inactive). The GI50 in experiment [13] is 3.91 µM (inactive); in [14] it was 4.39 µM (inactive); in experiment [15] it was 13.6 µM (inactive); in experiment [16] it was 5.05 µM (inactive); in experiment [17] it was 6.03 µM (inactive); in experiment [18] it was 8.2 µM (inactive). Besides, the GI50 in experiment [19] is 13.6 µM (inactive).
For `CC(=O)C1C(=O)C(=O)N(c2ccccc2)C1=O` (stereo not drawn), the GI50 in experiment [1], in [2], in experiment [3], in experiment [4], in experiment [5] and in experiment [6] was > 100 µM (inactive) throughout. Besides, the GI50 in [7], in experiment [8], in experiment [9], in experiment [10], in experiment [20] and in experiment [12] was > 100 µM (inactive) in each case. The GI50 in experiment [14], in experiment [15], in experiment [16], in experiment [17], in [18] and in experiment [19] was > 100 µM (inactive) each time.
As to `CCOC(=O)C1=C(C)C2C=C(c3cccs3)CC(c3ccc(Cl)cc3)=C2OC1=O` (stereo not drawn), the GI50 in experiment [1] was 13.3 µM (inactive); in experiment [2], > 100 µM (inactive); in [3], > 100 µM (inactive); in [4], 40.9 µM (inactive); in [5] it was 17.7 µM (inactive); in experiment [6], 60.4 µM (inactive). In addition, the GI50 in experiment [7] is 31.8 µM (inactive); in experiment [8], 6.07 µM (inactive); in experiment [9], 58.3 µM (inactive); in experiment [10] it was 42.4 µM (inactive); in experiment [20], 17.3 µM (inactive); in experiment [12], > 100 µM (inactive). Besides, the GI50 in experiment [13] is 5.05 µM (inactive); in experiment [14] it was 19.7 µM (inactive); in [15], 33.3 µM (inactive); in experiment [16], 71.1 µM (inactive); in [17], 97.1 µM (inactive); in [18] it was 14.1 µM (inactive). Also, the GI50 in [19] is 15.2 µM (inactive).
